The subject of data set [1] is Human immunodeficiency virus 1. Kind of data set: Effective concentration of the compound against human immunodeficiency virus type 1. It is filed as functional, organism-based.
The test system of data set [2] is Human immunodeficiency virus 1. Kind of data set: Selectivity index against human immunodeficiency virus type 1. It is filed as functional.
Data set [3] relates to Human immunodeficiency virus 1. Kind of data set: Cytotoxic concentration of the compound to inhibit HIV 1 replication. The data set is classed as functional.
In data set [4] the test system is Human immunodeficiency virus 1. Kind of data set: Effective concentration of the compound to inhibit human immunodeficiency virus type 1 replication. It is filed as functional, organism-based.
The test system of data set [5] is Cell line. Kind of data set: Mean decrease in viral load in humans after administration of 25 mg once a day; expressed as log 10 reduction. The data set is classed as functional, Homo sapiens.
Data set [6] has as its system Cell line. Kind of data set: Mean decrease in viral load in humans after administration of 100 mg twice a day; expressed as log10 reduction. The data set is classed as functional, Homo sapiens.
For data set [7], the target named is C-C chemokine receptor type 5 (Homo sapiens) (UniProt P51681).
C-C chemokine receptor type 5 (Homo sapiens), sequence (P51681 whole entry, looked up): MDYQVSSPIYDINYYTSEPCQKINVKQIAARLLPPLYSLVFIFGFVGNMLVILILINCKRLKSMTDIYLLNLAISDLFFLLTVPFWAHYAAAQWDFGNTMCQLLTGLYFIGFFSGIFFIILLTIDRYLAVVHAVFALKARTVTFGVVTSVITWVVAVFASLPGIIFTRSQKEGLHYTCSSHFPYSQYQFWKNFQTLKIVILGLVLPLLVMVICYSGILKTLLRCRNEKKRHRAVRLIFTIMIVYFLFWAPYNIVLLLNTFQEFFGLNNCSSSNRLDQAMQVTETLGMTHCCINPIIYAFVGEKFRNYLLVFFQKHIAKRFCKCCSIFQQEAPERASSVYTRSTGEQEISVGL
Description: Inhibitory concentration against human immunodeficiency virus isolates utilizing C-C chemokine receptor type 5 for cell entry
In data set [8] the test system is Human immunodeficiency virus 1. The experiment in a line: Fold reduction in plasma HIV RNAafter intravenous administration of 100 mg twice daily (1.5-2.0). The data set is classed as functional.
Data set [9] concerns Human immunodeficiency virus 1. Kind of data set: Effective concentration against human immunodeficiency virus type 1 strains; (0.3-0.5 nM). It is filed as functional, organism-based.
Data set [10] deals with Cell line. Kind of data set: Reduction of viral load after administration at 25 mg, twice daily for 10 days with antiretrovirals; expressed as log10 reduction; (0.5-1 ). The data set is classed as functional, Homo sapiens.
For data set [11], the system named is Human immunodeficiency virus 1. The experiment in a line: Effective concentration of the compound to inhibit the replication of human immunodeficiency virus type 1. It is filed as functional, organism-based.
A short description of data set [12]: Inhibitory concentration to inhibit cell to cell fusion based on C14 linkmid (a short constrained peptide). It is filed as functional.
In data set [13] the test system is Human immunodeficiency virus 1. The experiment in a line: Inhibitory concentration to inhibit HIV-1 mediated cell to cell fusion. The data set is classed as functional, organism-based.
Data set [14] concerns Cell line. Kind of data set: Reduction of viral load after oral administration at 100 mg for 8 weeks; expressed as log10 reduction. The data set is classed as functional, Homo sapiens.
The test system of data set [15] is Human immunodeficiency virus 1. Kind of data set: (§1) Effective concentration to inhibit the replication of HIV-1 R5 strain. The data set is classed as functional.
Data set [16] has as its system Human immunodeficiency virus 1. The description is as §1. The data set is classed as functional, organism-based.
Data set [17] is described as follows: Oral bioavailability in monkeys. It is filed as ADME, organism-based. The following applies: cercopithecidae, in vivo, read-out: Bioavailabiility.
Data set [18] can be described thus: Oral bioavailability in fasted rats. It is filed as ADME, organism-based. The following applies: rat, in vivo, read-out: Bioavailabiility.

In brackets after ≈: the same amount, converted by molar mass. A value given as a limit tells only on which side of the number the result lay.

The compound `Cc1ccc(C)c(CSc2c(Cl)ccc[n+]2[O-])c1` registered an EC50 in data set [1] of 0.05 µg/mL (≈ 0.179 µM). Besides, the SI in data set [2] is around 760. In data set [3], `O=C(/C=C(\O)c1ccc(Cc2ccc(F)cc2)o1)c1nc[nH]n1` yielded a CC50 of 110000 nM. Further, the EC50 in [4] came to 140 nM. Take `Cc1nnc(C(C)C)n1[C@H]1CC2CC[C@@H](C1)N2CC[C@H](NC(=O)C1CCC(F)(F)CC1)c1ccccc1` (single isomer, unassigned) [MARAVIROC]: the results for the Activity in data set [5] and in [6] were 0.42 and 1.42, respectively. For the same compound, in data set [7], the IC90 is below 10 nM.

In [8], enfuvirtide came in with a Reduction of 2. As to `COc1ccc(S(=O)(=O)N(CC(C)C)C[C@@H](O)[C@H](Cc2ccccc2)NC(=O)O[C@H]2CO[C@H]3OCC[C@H]32)cc1`, the EC50 in [9] worked out at 0.5 nM. Turning to `COC[C@@H](c1ccc(C(F)(F)F)cc1)N1CCN(C2(C)CCN(C(=O)c3c(C)ncnc3C)CC2)C[C@@H]1C` [VICRIVIROC], the Reduction in data set [10] was 1. `O=[N+]([O-])c1ccc(C2c3c(O)nc(S)nc3Oc3nc(S)nc(O)c32)cc1` showed an EC50 in [11] of 8900 nM.

With `CC(C)Cc1cc(-c2ccc(-c3ccc(CCC(=O)O)cc3CC(C)C)cc2C(C)C)ccc1OCC(=O)O`, the 50% inhibitory concentration (IC50) in data set [12] is 35000 nM; in data set [13], around 15 µg/mL (≈ 28.3 µM). As for `O=C1Nc2ccc(Cl)cc2[C@@](/C=C/C2CC2)(C(F)(F)F)N1`, the Reduction in data set [14] was determined as 1.28.

In [15], `CC(=O)N1CCC(C(=O)N(CCCN2CCC(Cc3ccc(C(N)=O)cc3)CC2)c2ccc(C)c(Cl)c2)CC1` returned an EC90 of 13 nM. A half-maximal effect in data set [16] (EC50) was put at 1.1 nM. In addition, the bioavailability was 28.5% in data set [17] and 9.5% in data set [18].

Values taken from ChEMBL document CHEMBL1142687, “New approaches toward anti-HIV chemotherapy” (J Med Chem, 2005).
